Columns and labels:
Format in all cases: cell-based
Rhodotorula rubra = assay: Screening against yeasts; parameters: key: 3 = complete inhibition of growth, 2 = growth partially controlled; settings: test compound concentration 500 μmol
Description: (§1) The stock solutions with the test compounds were pipetted into multiwell plates and mixed with warm tryptose broth agar (2.6%) in order to reach a test compound concentration of 500 μMol. The medium was allowed to cool and subsequently inoculated with the bacteria. Wells were placed in an incubator at 27° C. and a relative humidity of 70%. After sufficient growth of the untreated cultures, the test was evaluated.
(§2) 3: complete inhibition of bacterial growth
(§3) 2: bacterial growth partially controlled
(§4) A number of compounds of formula (I) were also tested in a screening against certain The test conditions are the same as described in biological example C.1. The concentration of the test compound was also 500 μmol, and the scoring system used was also the same.

Sporobolomyces roseus = assay: Screening against yeasts; parameters: key: 3 = complete inhibition of growth, 2 = growth partially controlled; settings: test compound concentration 500 μmol
Description: as §1, §2, §3, §4
Sporobolomyces roseus (21)

Pseudomonas aeruginosa = assay: Primary bacteria screening; parameters: key: score: 3 = complete inhibition of growth, 2 = growth partially controlled; settings: test compound concentration 500 μMol in tryptose broth agar, 27° C.
Description: as §1, §2, §3

Escherichia coli = assay: Primary bacteria screening; parameters: key: score: 3 = complete inhibition of growth, 2 = growth partially controlled; settings: test compound concentration 500 μMol in tryptose broth agar, 27° C.
Description: as §1, §2, §3

Debaryomyces hansenii = assay: Screening against yeasts; parameters: key: 3 = complete inhibition of growth, 2 = growth partially controlled; settings: test compound concentration 500 μM
Description: as §1, §2, §3, §4
Debaryomyces hansenii (19)

SMILES | Test yeast (20) Rhodotorula rubra (score) (Rhodotorula rubra) | Test yeast (21) Sporobolomyces roseus (score) (Sporobolomyces roseus) | P. aeruginosa (growth inhibition score) (Pseudomonas aeruginosa) | E. coli (growth inhibition score) (Escherichia coli) | Test yeast (19) Debaryomyces hansenii (score) (Debaryomyces hansenii)
Cl.Cl.Fc1ccc(-c2ccc(C(c3ccc(F)cc3)C3CCN(C4CCNCC4)CC3)cc2)cc1 (stereo not drawn) [compound 6] | 3 | 3 | 3 | 3 | 3
Cc1ccc(C(c2ccc(-c3ccc(F)cc3)cc2)C2CCN(C3CCNCC3)CC2)cc1.Cl.Cl (stereo not drawn) [compound 9] | 3 | 3 | 2 | 3 | 3
Cl.Fc1ccc(C(c2ccc(-c3ccccc3)cc2)C2CCN(C3CCNCC3)CC2)cc1 (stereo not drawn) [compound 11] | 1 | 3 | 3 | 3 | 3
Br.Br.COc1ccc(C(c2ccc(-c3ccccc3)cc2)C2CCN(C3CCNCC3)CC2)cc1 (stereo not drawn) [compound 12] | 2 | 3 | 2 | 3 | 3
Cl.Cl.Oc1ccc(C(c2ccc(-c3ccccc3)cc2)C2CCN(C3CCNCC3)CC2)cc1 (stereo not drawn) [compound 13] | 1 | 3 | 3 | 3 | 3
NCCCN1CCC(N2CCC(C(c3ccccc3)c3ccc(-c4ccccc4)cc3)CC2)CC1 (stereo not drawn) [compound 16] | 3 | 3 | 3 | 3 | 3
CCN1CCC(N2CCC(C(c3ccccc3)c3ccc(-c4ccccc4)cc3)CC2)CC1.Cl.Cl (stereo not drawn) [compound 18] | 1 | 3 | 2 | 1 | 3
NCCC1CCN(CC=C(c2ccccc2)c2ccc(-c3ccccc3)cc2)CC1.O=C(O)C(=O)O.O=C(O)C(=O)O [compound 25] | 1 | 3 | 1 | 3 | 3
NCC1CCN(CC=C(c2ccccc2)c2ccc(-c3ccccc3)cc2)CC1.O=C(O)C(=O)O.O=C(O)C(=O)O [compound 26] | 2 | 3 | 1 | 3 | 3
NC1CCN(CC=C(c2ccccc2)c2ccc(-c3ccccc3)cc2)CC1.O=C(O)C(=O)O.O=C(O)C(=O)O [compound 27] | 1 | 3 | 1 | 3 | 3
Cl.Cl.NCCC1CCN(CCC(c2ccccc2)c2ccc(-c3ccccc3)cc2)CC1 (stereo not drawn) [compound 29] | 3 | 3 | 1 | 3 | 3
Cl.Cl.NCC1CCN(CCC(c2ccccc2)c2ccc(-c3ccccc3)cc2)CC1 (stereo not drawn) [compound 30] | 1 | 3 | 1 | 3 | 3
Cl.Cl.NC1CCN(CCC(c2ccccc2)c2ccc(-c3ccccc3)cc2)CC1 (stereo not drawn) [compound 31] | 1 | 3 | 1 | 3 | 3
CN(C)CC1CCN(CCC(c2ccccc2)c2ccc(-c3ccccc3)cc2)CC1 (stereo not drawn) [compound 33] | 3 | 3 | 1 | 1 | 3
CN(C)CCNCCC(c1ccccc1)c1ccc(-c2ccccc2)cc1 (stereo not drawn) [compound 39] | 1 | 3 | 1 | 3 | 3
CN(C)CCCN1CCC(C(c2ccccc2)c2ccc(-c3ccccc3)cc2)CC1.Cl.Cl (stereo not drawn) [compound 43] | 2 | 3 | 2 | 1 | 3
Cl.Cl.Cl.c1ccc(-c2ccc(C(c3ccccc3)N3CCN(C4CCNCC4)CC3)cc2)cc1 (stereo not drawn) [compound 46] | 1 | 3 | 3 | 1 | 3
c1ccc(-c2ccc(C(NC3CCN(C4CCNCC4)CC3)c3ccccc3)cc2)cc1 (stereo not drawn) [compound 47] | 3 | 3 | 1 | 3 | 3
Cl.Cl.Cl.NC1CCN(C2CCN(C(c3ccccc3)c3ccc(-c4ccccc4)cc3)CC2)CC1 (stereo not drawn) [compound 49] | 2 | 3 | 1 | 3 | 3
Br.Br.c1ccc(-c2ccc(C(CCNC3CCNCC3)c3ccccc3)cc2)cc1 (stereo not drawn) [compound 50] | 3 | 3 | 1 | 3 | 3
Br.Br.CN(CCC(c1ccccc1)c1ccc(-c2ccccc2)cc1)C1CCNCC1 (stereo not drawn) [compound 51] | 3 | 3 | 1 | 3 | 3

From patent US6440440B1, “Biocidal benzylbiphenyl derivatives” (priority 1998, dated 2002)
